According to patent US12030908B2, “Antimicrobial compounds, compositions, and uses thereof” (Lakewood Amedex, Inc., priority 2017, dated 2024):
Where “and” joins values, the source holds several entries; their conditions need not be identical. Identical values can stand only once.

Experiments:
E. coli = assay: Broth microdilution MIC at incremental pH, E. coli; type: cell-based
Procedure: MIC testing is conducted using the broth (Mueller Hinton Broth) microdilution procedures relevant to each organism group as established by the Clinical and Laboratory Standards Institute (CLSI; 3-7). MIC plates are prepared in accordance with CLSI (3-7). To prepare the test plates, automated liquid handlers are used to conduct serial dilutions and liquid transfers. Automated liquid handlers utilized in this study include the Multidrop 384 (Labsystems, Helsinki, Finland) and the Biomek 2000 (Beckman Coulter, Fullerton CA). The solution is diluted to desired pH using 1 M Citric Acid or 1 M NaOH buffer. A standardized inoculum of each test organism is prepared per CLSI methods (3, 5-7) to equal a 0.5 McFarland standard in the appropriate media followed by an additional 1:20 dilution (1:10 for anaerobes).
The plates are then inoculated with 10 μL of the diluted 0.5 McFarland suspension using the Biomek 2000 from low to high drug concentration, resulting in a final concentration of approximately 5×10^5 CFU/mL per well. An un-inoculated plate is incubated for the purpose of assessing solubility of the drug in the test media. The plates are stacked 3 to 4 high, covered with a sterile lid on the top plate, and incubated for 18 to 24 hours according to CLSI. The MIC is recorded as the lowest concentration of respective compound that inhibited visible growth of the organism.

[1] = test system: Aspergillus fumigatus (ATCC13073); assay: Neutropenic lung infection model in mice, lung fungal burden and mortality (Example 24); type: in vivo, BALB/c mice
Procedure: Neutropenic, BALB/c female mice, all of which were from 6 to 8 weeks of age, were infected intranasally with Aspergillus fumigatus (ATCC13073) at inoculum strengths of ˜1×10^6 conidia/animal (Part A) and ˜1×10^4 conidia/animal (Part B). Twenty four hours after infection, animals were treated by aerosol route with vehicle and Nu-8 (10% solution) for one, two, three, and five days. Two hours following treatment, groups of mice were terminated on days 1, 3, and 5, and lungs were collected to determine fungal load. A similar procedure was followed at inoculum strengths of ˜1×10^3 conidia/animal (Part C) and ˜1×10^2 conidia/animal (Part D).
This experiment was performed in four parts: Part A (infection with 1×10^6 conidia/animal), Part B (infection with 1×10^4 conidia/animal), Part C (infection with 1×10^3 conidia/animal), and Part D (infection with 1×10^2 conidia/animal). The mice were separated into cohorts in accordance with Table 13 (Part A), Table 14 (Part B), Table 15 (Part C), and Table 16 (Part D).
On day −4 (four days before the date of infection), each mouse was dosed with a single intraperitoneal injection of cyclophosphamide equivalent to 150 mg/kg and returned to its cage. On day −1 (one day before infection) each mouse received a dose equivalent to 100 mg/kg of cyclophosphamide. Neutropenia was confirmed with differential leukocyte count on day 0.
One week before infection, an aliquot from the glycerol stocks of Aspergillus fumigatus (ATCC13073) was taken and grown on Potato Dextrose Agar (PDA) plates for seven days in an incubator at 25° C. After seven days, conidia were collected by scraping the colonies from the PDA plate with a sterile loop and washing the surface of the plate with sterile distilled water. The conidial suspension was collected into a sterile tube and filtered through 10 layers of sterile cheese (muslin) cloth/Whatman filter paper to remove hyphal fragments from the spore suspension. The optical density of the filtered suspension was adjusted to an equivalent of ˜1×10^8 conidia/ml. The inoculum was serially diluted in normal saline and viability was checked by hemocytometer.
Animals were divided into different groups as specified in the experimental design (Tables 13-16). Infections were conducted in a biological safety cabinet, with appropriate personnel protection. Mice were placed into an induction chamber and anesthesia was induced by exposing the animals to 3%-5% Isoflurane in an oxygen flow set at approximately 1 liter per minute (LPM). Once the animals were in a sufficiently deep plane of anesthesia, they were removed and infected. Infection was done by injection of 0.02 ml (containing ˜1×10^8 CFU/ml for Part A, ˜1×10^6 CFU/ml for Part B, ˜1×10^5 CFU/ml for Part C, and ˜1×10^4 CFU/ml for Part D). 10 μl was instilled into each nostril of the anesthetized animal (˜2×10^6 CFU/animal for Part A, ˜2×10^4 CFU/animal for Part B, ˜2×10^3 CFU/animal for Part C, ˜2×10^2 CFU/animal for Part D) using a 10 μl pipette. A gentle shaking/mixing of inoculum between two animals was followed for uniform distribution.
The vehicle used for the test compound was saline (0.9% NaCl adjusted to pH 3.5 with citric acid). To make 10% solution, 15 g Nu-8 was weighed and dissolved in 145 ml of the saline and the pH of the solution was adjusted to 3.5 with citric acid (0.1 M) in a final volume of 150 ml.
Treatment began twenty four hours after infection. Test formulations were administered by aerosol route with nose only apparatus connected to a nebulizer (Omron Ne-C28 Compressor Nebulizer with a volume capacity of 15 ml, Particle size 3 μm, Nebulization rate: 0.5 ml/min and Aerosol output rate: 0.09 ml/min). Test formulations were placed into the nebulizer fluid cup; animals were placed in the nose-only apparatus, and the entire system was placed inside a Class II Biosafety Cabinet. […]

## CCCCOP(=O)(O)OC[C@H]1O[C@@H](n2ccc(N)nc2=O)C[C@@H]1OP(=O)(O)OCCCC [Nu-8, sodium ((2R,3S,5R)-5-(4-amino-2-oxopyrimidin-1(2H)-yl)-3-((butoxyoxidophosphor-yl)oxy)tetrahydrofuran-2-yl)methyl butyl phosphate]
E. coli; pH 1
  MIC: 9.8 mg/mL
E. coli; pH 3
  MIC: 37.5 mg/mL
E. coli; pH 4
  MIC: 75 mg/mL
E. coli; pH 5
  MIC: >75 mg/mL
E. coli; pH 7
  MIC: >75 mg/mL
[1]; Part A, 1×10^6 conidia/animal, 10% aerosol single dose, individual mice
  Log10 CFU/g lung: 6.16 Log10 CFU/g lung and 5.71 Log10 CFU/g lung and 4.51 Log10 CFU/g lung and 5.41 Log10 CFU/g lung and 5.14 Log10 CFU/g lung and 5.76 Log10 CFU/g lung
[1]; Part A, 10% aerosol, 3 doses, once daily for 3 days, day 3
  % Mortality: 50% and 50 [day 3] %
[1]; Part A, 10% aerosol, 3 doses, once daily for 3 days, individual surviving mice
  Log10 CFU/g lung: 4.96 Log10 CFU/g lung and 5.48 Log10 CFU/g lung and 3.23 Log10 CFU/g lung
[1]; Part A, 10% aerosol, 3 doses, once daily for 3 days, n = 3
  Mean ± SD (Log10 CFU/g lung): 4.56 ± 1.18 Log10 CFU/g lung
[1]; Part A, 10% aerosol, 5 doses, once daily for 5 days, individual surviving mice
  Log10 CFU/g lung: 4.28 Log10 CFU/g lung and 4.06 Log10 CFU/g lung
[1]; Part A, 10% aerosol, 5 doses, once daily for 5 days, n = 2
  Mean (Log10 CFU/g lung): 4.17 (n = 2) Log10 CFU/g lung
[1]; Part A, day 3 and day 5
  efficacy vs day 1 control and day 3 vehicle controls: marked efficacy
[1]; Part A, single dose (day 1), p>0.05
  efficacy vs vehicle control: did not show significant efficacy
[1]; Part A, treated with Nu-8 (10%) for three days, day 3
  mean fungal count: 4.56 log10 spores/g lung
[1]; Part A, treatment with Nu-8 (10%), day 5
  mean fungal count: 4.17 log10 spores/g lung
[1]; Part B, 1×10^4 conidia/animal, 10% aerosol single dose (Table 20 group 3), terminated day 3
  Mean ± SD (Log10 spores/g lung): 4.41±0.29 Log10 spores/g lung
[1]; Part B, 1×10^4 conidia/animal, 10% aerosol single dose, terminated day 3, individual mice
  Log10 spores/g lung: 3.99 Log10 spores/g lung and 4.72 Log10 spores/g lung and 4.51 Log10 spores/g lung and 4.83 Log10 spores/g lung and 4.23 Log10 spores/g lung and 4.45 Log10 spores/g lung and 4.14 Log10 spores/g lung and 4.34 Log10 spores/g lung
[1]; Part B, 10% aerosol, 3 doses, once daily for 3 days
  Mean ± SD (Log10 spores/g lung): 4.31±0.29 Log10 spores/g lung
[1]; Part B, 10% aerosol, 3 doses, once daily for 3 days, individual mice
  Log10 spores/g lung: 4.29 Log10 spores/g lung and 4.45 Log10 spores/g lung and 3.93 Log10 spores/g lung and 4.28 Log10 spores/g lung and 4.34 Log10 spores/g lung and 4.87 Log10 spores/g lung and 4.24 Log10 spores/g lung and 4.03 Log10 spores/g lung
[1]; Part C, 1×10^3 conidia/animal, 10% aerosol, 3 doses, once daily for 3 days
  Mean ± SD (Log10 spores/g lung): 3.65±0.50 Log10 spores/g lung
[1]; Part C, 1×10^3 conidia/animal, 10% aerosol, 3 doses, once daily for 3 days, individual mice
  Log10 spores/g lung: 4.30 Log10 spores/g lung and 3.67 Log10 spores/g lung and 3.46 Log10 spores/g lung and 4.05 Log10 spores/g lung and 3.54 Log10 spores/g lung and 2.85 Log10 spores/g lung
[1]; Part D, 1×10^2 conidia/animal, 10% aerosol, 5 doses, once daily for 5 days
  Mean ± SD (Log10 spores/g lung): 2.49±0.16 Log10 spores/g lung
[1]; Part D, 1×10^2 conidia/animal, 10% aerosol, 5 doses, once daily for 5 days, individual mice
  Log10 spores/g lung: 2.71 Log10 spores/g lung and 2.23 Log10 spores/g lung and 2.50 Log10 spores/g lung and 2.52 Log10 spores/g lung and 2.44 Log10 spores/g lung and 2.56 Log10 spores/g lung
